Reference: patent US20130266676A1, “TERMINALIA CHEBULA COMPOSITIONS AND METHOD OF EXTRACTING SAME” (NATREON, INC., priority 2012, published 2013)

Assays:
HSV-1 = conditions: noncytotoxic doses, A549 human lung cells; cited from earlier work
[1] = tested on: MCF-7, S115, HOS-1, PC-3 and PNT1A cell lines; conditions: cited from earlier work
[2] = tested on: cytotoxic T-lymphocyte (CTL)-mediated cytotoxicity; conditions: cited from earlier work
[3] = tested on: human cervical carcinoma HeLa cells; conditions: cited from earlier work
[4] = tested on: stimulated human peripheral blood lymphocytes; conditions: concentrations ten times above maximal effective concentration; cited from earlier work
HIV rgp120 to CD4 = HIV rgp120 to CD4 (UniProt P01730+P04578); conditions: cited from earlier work
COX-2 = target: T1, COX-2 (Homo sapiens, UniProt P35354); conditions: cited from earlier work
T1 sequence (P35354 18-604): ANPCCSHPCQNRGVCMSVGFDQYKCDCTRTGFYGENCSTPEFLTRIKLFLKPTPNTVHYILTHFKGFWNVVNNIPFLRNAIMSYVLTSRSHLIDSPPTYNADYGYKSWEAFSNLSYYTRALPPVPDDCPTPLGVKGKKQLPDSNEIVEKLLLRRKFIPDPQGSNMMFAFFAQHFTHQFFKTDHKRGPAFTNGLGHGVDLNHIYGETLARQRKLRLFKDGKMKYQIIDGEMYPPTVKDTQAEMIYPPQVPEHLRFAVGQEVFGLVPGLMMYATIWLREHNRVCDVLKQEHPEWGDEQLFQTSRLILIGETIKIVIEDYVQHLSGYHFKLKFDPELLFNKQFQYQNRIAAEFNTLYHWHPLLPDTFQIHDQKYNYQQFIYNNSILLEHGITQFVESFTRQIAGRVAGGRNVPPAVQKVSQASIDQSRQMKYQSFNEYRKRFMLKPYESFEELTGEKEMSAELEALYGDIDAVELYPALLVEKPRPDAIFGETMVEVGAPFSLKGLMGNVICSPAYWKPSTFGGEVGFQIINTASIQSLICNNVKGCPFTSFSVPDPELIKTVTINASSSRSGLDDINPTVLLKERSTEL

[5] = tested on: HCT-15, COLO-205, MDA-MB-231, DU-145 and K562 cell lines; conditions: cited from earlier work
[6] = tested on: collagen-induced arthritis; conditions: mice; cited from earlier work
5-LOX = conditions: cited from earlier work
COX-1 = conditions: cited from earlier work
LPS-stimulated RAW 264.7 = conditions: cited from earlier work
[7] = compared with ascorbic acid, butylated hydroxyl toluene, alpha-tocopherol, arbutin and kojic acid; cited from earlier work
HepG2 cells = conditions: cited from earlier work
Smad pathway = conditions: through inhibition of the Smad pathway; cited from earlier work
PRMI-7951 melanoma cells = conditions: cited from earlier work
[8] = Thermal stability during aqueous extraction at 80±5° C. (HPLC); type: physicochemical; conditions: different time points
Protocol: In another experiment, fruit pericarp portions of T. Chebula (50 g) were pulverized and the resulting powder was extracted with distilled water (300 ml) for 12 hours, with a continuous stirring (400 RPM), separately at different temperatures 30±5° C., 40±5° C., 60±5° C. and 80±5° C. using a pressure reactor. Aliquots of the samples were withdrawn at different time intervals during extraction, spray dried and analyzed for bioactives (Chebulagic acid, Chebulinic acid and other LMwHTs) by HPLC (as discussed above). The results are incorporated in Tables 3-6. As used herein, “0 hour” extraction refers to “instant extraction,” which for the purpose of this disclosure means distilled water was added to the pulverized powder on a thermostatic water bath, stirred for 5 minutes and an aliquot of the sample withdrawn and analyzed.

melanin = conditions: compared with ascorbic acid, butylated hydroxyl toluene, alpha-tocopherol, arbutin and kojic acid; cited from earlier work
K562 cells = conditions: concentration-dependent; cited from earlier work
[9] = rats; cited from earlier work

In the case of O=C1O[C@H]2[C@@H]3OC(=O)c4cc(O)c(O)c(O)c4-c4c(O)c(O)c5oc(=O)c6c(c(O)c(O)c7oc(=O)c4c5c76)-c4c(cc(O)c(O)c4O)C(=O)OC[C@H]3OC(O)[C@@H]2OC(=O)c2cc(O)c(O)c(O)c2-c2c1cc(O)c(O)c2O (mixture of isomers) [punicalagin], the “inhibition of HSV-1 entry” value (HSV-1) is listed as “inhibit HSV-1 entry”.

For O=c1oc2c(O)c(O)cc3c(=O)oc4c(O)c(O)cc1c4c23 [ellagic acid], the growth inhibition [1] is given as “growth inhibitory”.

For O=C(O)C[C@H](C(=O)O)[C@H]1c2c(cc(O)c(O)c2O)C(=O)O[C@@H]1C(=O)O [chebulic acid], the “blocking of CTL-mediated cytotoxicity” value [2] is given as “blocked”.

In the case of O=C(O[C@H]1[C@@H]2OC(=O)c3cc(O)c(O)c(O)c3-c3c(cc(O)c(O)c3O)C(=O)OC[C@H]2OC(O)[C@@H]1OC(=O)c1cc(O)c(O)c(O)c1)c1cc(O)c(O)c(O)c1 (stereo partly shown) [Tellimagrandin I], the anti-tumor properties [3] is listed as “anti-tumor properties”.

In the case of O=C1OC[C@H]2OC(O)[C@H](O)[C@@H](O)[C@@H]2OC(=O)c2cc(O)c(O)c(O)c2-c2c(O)c(O)c3oc(=O)c4c(c(O)c(O)c5oc(=O)c2c3c54)-c2c1cc(O)c(O)c2O (mixture of isomers) [punicalin], the toxicity to lymphocytes [4] is given as “not toxic” and the “blocking of binding of HIV rgp120 to CD4” value (HIV rgp120 to CD4) is given as “block the binding”.

For O=C(O)CC1C(=O)OC2C3COC(=O)c4cc(O)c(O)c(O)c4-c4c(cc(O)c(O)c4O)C(=O)OC2C(OC(=O)c2cc(O)c(O)c4c2C1C(O)C(=O)O4)C(OC(=O)c1cc(O)c(O)c(O)c1)O3 [Chebulagic acid, beta-1-O-galloyl-2,4-chebuloyl-3,6-(R)-hexahydroxydiphenoyl-D-glucose], the “inhibition of HSV-1 entry” value (HSV-1) is listed as “inhibit HSV-1 entry”, the IC50 (COX-2) is listed as 920 ± 11 nM and the anti-proliferative activity [5] is listed as “anti-proliferative activity”. For the same compound, the “onset and progression of collagen-induced arthritis” value [6] was “suppress the onset and progression”, the IC50 (5-LOX) was 2100 ± 57 nM and the IC50 (COX-1) was 15 ± 0.288 µM. The anti-inflammatory effects (LPS-stimulated RAW 264.7) was “potent anti-inflammatory effects”, the “DPPH radical scavenging activity versus reference antioxidants” value [7] was “stronger” and the “enhancement of cytotoxicity of doxorubicin” value (HepG2 cells; HepG2 cells) was 20 fold. For the same compound, the “interaction with doxorubicin by Combination Index (CI), cell growth inhibition” value (HepG2 cells) was “strong synergistic interaction”, the antifibrotic activity (Smad pathway) was “antifibrotic activity” and the cytotoxicity (PRMI-7951 melanoma cells) was “cytotoxic properties”. The thermal stability [8] was “thermolabile” and the “melanin inhibitory activity versus reference agents” value (melanin) was “stronger”.

In the case of O=C(OC[C@H]1O[C@@H](OC(=O)c2cc(O)c(O)c(OC(=O)c3cc(O)c(O)c(O)c3)c2)[C@H](OC(=O)c2cc(O)c(O)c(OC(=O)c3cc(O)c(O)c(O)c3)c2)[C@@H](OC(=O)c2cc(O)c(O)c(OC(=O)c3cc(O)c(O)c(O)c3)c2)[C@@H]1OC(=O)c1cc(O)c(O)c(OC(=O)c2cc(O)c(O)c(O)c2)c1)c1cc(O)c(O)c(OC(=O)c2cc(O)c(O)c(O)c2)c1 [tannic acid], the growth inhibition [1] is given as “growth inhibitory”.

For O=C(O)CC1C(=O)OC2C(COC(=O)c3cc(O)c(O)c(O)c3)OC(OC(=O)c3cc(O)c(O)c(O)c3)C(OC(=O)c3cc(O)c(O)c4c3C1C(O)C(=O)O4)C2OC(=O)c1cc(O)c(O)c(O)c1 [Chebulinic acid, 1,3,6-tri-O-galloyl-2,4-chebuloyl-beta-D-glucose], the hemoglobin synthesis (K562 cells) is listed as “inhibited the hemoglobin synthesis”, the growth inhibition [1] is listed as “growth inhibitory” and the toxicity to lymphocytes [4] is listed as “not toxic”. The anti-tumor properties [3] was “anti-tumor properties”, the “DPPH radical scavenging activity versus reference antioxidants” value [7] was “stronger” and the “blocking of binding of HIV rgp120 to CD4” value (HIV rgp120 to CD4) was “block the binding”. The blood pressure effect [9] was “blood pressure lowering effect”, the antifibrotic activity (Smad pathway) was “antifibrotic activity” and the thermal stability [8] was “thermolabile”. The “melanin inhibitory activity versus reference agents” value (melanin) was “stronger”.
